According to patent US10563263B2, “Genetic polymorphisms associated with statin response and cardiovascular diseases, methods of detection and uses thereof” (CELERA CORPORATION, priority 2010, dated 2020):

Tested on: CHD (death from CHD, nonfatal MI, or revascularization)
Assay: WOSCOPS: SNP by pravastatin treatment interaction, logistic regression (synergy index), CHD endpoint
Format: in vivo, human
Settings: for OR (synergy index): WOSCOPS
Excerpt: CARE was a secondary prevention trial and WOSCOPS was a primary prevention trial.
The CHD endpoint was defined in the analyses herein of CARE as a composite endpoint of fatal CHD, definite non-fatal MI, or revascularization, and was defined in the analyses herein of WOSCOPS as a composite endpoint of death from CHD, nonfatal MI, or revascularization. In both the CARE and WOSCOPS analyses herein, the CVD endpoint was defined as a composite endpoint of CHD or stroke. […] Revascularization, which can include percutaneous transluminal coronary angioplasty (PTCA), stent placement, and coronary artery bypass graft (CABG), are medical interventions that indicate the presence of CHD.
Cohort and case-only study designs were used to identify SNPs associated with response to statin treatment.
For each SNP, a logistic regression model having treatment status as the dependent variable and SNP as the independent predictor variable was performed, with terms for age, sex and race included in the model as covariates. The anti-log of the regression coefficient corresponding to the SNP is an estimate of the synergy index (SI) (Davis et al., “Imputing gene-treatment interactions when the genotype distribution is unknown using case-only and putative placebo analyses-a new method for the Genetics of Hypertension Associated Treatment (GenHAT) study”, Statistics in Medicine 23: (2004), pages 2413-2427). The SI is a ratio of odds ratios: for example in the CARE and WOSCOPS studies, the SI represents the factor by which the odds-ratio of statin treatment, compared with placebo, among major homozygous individuals is multiplied by in order to obtain the odds-ratio of treatment vs. placebo among heterozygous individuals; and multiplied by a second time to obtain the odds-ratio of treatment vs. placebo in minor homozygous individuals. The case-only study design results in a valid estimate of the SI under the assumption that genotype and treatment are independent in the population. In a randomized clinical trial, genotype and treatment are independent by design. The p-value for the regression coefficient corresponding to the SNP results from a test of the null hypothesis that the regression coefficient is equal to zero (SI is equal to one) and thus small p-values indicate the SI is unlikely equal to one and that the effect of treatment likely differs by genotype. […]

CC[C@H](C)C(=O)O[C@H]1C[C@H](O)C=C2C=C[C@H](C)[C@H](CC[C@@H](O)C[C@@H](O)CC(=O)O)[C@H]21 [Pravastatin, pravastatin]
WOSCOPS OR (rs4726711, source CaseOnly, model add, endpoint CHD): 0.62 | OR (synergy index) (rs4736802 allele G, DOM model, Imputed): 1.614 | OR (synergy index) (rs4760785 allele A, ADD model, Imputed): 0.7714 | OR (synergy index) (rs4760785 allele A, DOM model, Imputed): 0.5986 | OR (synergy index) (rs4760894 allele T, ADD model, Imputed): 0.7714 | OR (synergy index) (rs4760894 allele T, DOM model, Imputed): 0.5986 | OR (synergy index) (rs4760895 allele A, ADD model, Imputed): 0.7714 | OR (synergy index) (rs4760895 allele A, DOM model, Imputed): 0.5986 | OR (synergy index) (rs4764738 allele A, ADD model, Imputed): 1.555 | OR (synergy index) (rs4764974 allele T, ADD model, Imputed): 1.512 | OR (synergy index) (rs4798366 allele G, REC model, Imputed): 2.304 | WOSCOPS OR (rs4830819, source CaseOnly, model add, endpoint CHD): 0.66 | OR (synergy index) (rs4836502 allele T, DOM model, Imputed): 0.6887 | OR (synergy index) (rs4836507 allele C, DOM model, Imputed): 0.6884 | OR (synergy index) (rs4836744 allele A, ADD model, Imputed): 0.7704 | OR (synergy index) (rs4836744 allele A, DOM model, Imputed): 0.6637 | WOSCOPS OR (rs4836745, Source caseonly): 0.65 | OR (synergy index) (rs4848944 allele C, REC model, Genotyped): 0.464 | OR (synergy index) (rs4851529 allele A, DOM model, Imputed): 0.5663 | OR (synergy index) (rs4851531 allele T, DOM model, Imputed): 0.5588 | WOSCOPS OR (rs4870109, Source caseonly): 1.47 | OR (synergy index) (rs4878214 allele A, ADD model, Imputed): 0.7413 | OR (synergy index) (rs4880803 allele A, ADD model, Imputed): 0.7588 | OR (synergy index) (rs4896568 allele T, DOM model, Imputed): 0.5426 | WOSCOPS OR (rs4924215, source CaseOnly, model dom, endpoint CHD): 1.46 | OR (synergy index) (rs4938851 allele T, DOM model, Imputed): 1.301 | OR (synergy index) (rs4964416 allele C, DOM model, Imputed): 0.6799 | WOSCOPS OR (rs5750116, source cohort, model dom, endpoint CHD): 1.45 | OR (synergy index) (rs5756669 allele C, DOM model, Imputed): 1.541 | OR (synergy index) (rs6033138 allele C, ADD model, Imputed): 1.407 | OR (synergy index) (rs6033138 allele C, REC model, Imputed): 1.414 | OR (synergy index) (rs6040619 allele C, ADD model, Imputed): 1.488 | OR (synergy index) (rs6040619 allele C, REC model, Imputed): 1.688 | OR (synergy index) (rs6040625 allele T, ADD model, Imputed): 1.479 | OR (synergy index) (rs6040625 allele T, REC model, Imputed): 1.634 | OR (synergy index) (rs6040630 allele A, ADD model, Imputed): 1.42 | OR (synergy index) (rs6040630 allele A, REC model, Imputed): 1.462 | OR (synergy index) (rs6040633 allele A, ADD model, Imputed): 1.407 | WOSCOPS OR (rs6080603, source CaseOnly, model dom, endpoint CHD): 0.68 | WOSCOPS OR (rs6474228, Source caseonly): 1.83 | WOSCOPS OR (rs6491586, source CaseOnly, model dom, endpoint CHD): 1.78 | WOSCOPS OR (rs6505669, source CaseOnly, model dom, endpoint CHD): 1.37 | WOSCOPS OR (rs6585412, Source caseonly): 1.44 | WOSCOPS OR (rs6998016, Source caseonly): 9.63 | WOSCOPS OR (rs7018577, Source caseonly): 1.94 | WOSCOPS OR (rs7078016, Source caseonly): 1.44 | WOSCOPS OR (rs7193741, source cohort, model rec, endpoint CHD): 1.87 | WOSCOPS OR (rs7305949, Source caseonly): 1.74 | WOSCOPS OR (rs7332076, Source caseonly): 2.18 | WOSCOPS OR (rs7449527, Source caseonly): 1.71 | WOSCOPS OR (rs7521242, source CaseOnly, model add, endpoint CHD): 0.74 | WOSCOPS OR (rs7625204, source cohort, model add, endpoint CHD): 1.38 | WOSCOPS OR (rs7629632, source CaseOnly, model dom, endpoint CHD): 1.72 | WOSCOPS OR (rs7705993, source CaseOnly, model add, endpoint CHD): 1.44 | WOSCOPS OR (rs7742508, source cohort, model dom, endpoint CHD): 1.93 | WOSCOPS OR (rs7839562, Source caseonly): 1.63 | WOSCOPS OR (rs7916629, Source caseonly): 1.66 | WOSCOPS OR (rs9446187, source cohort, model dom, endpoint CHD): 2.05 | WOSCOPS OR (rs9859901, source CaseOnly, model add, endpoint CHD): 0.41 | WOSCOPS OR (rs10120126, source CaseOnly, model dom, endpoint CHD): 0.48 | WOSCOPS OR (rs10155047, source cohort, model add, endpoint CHD): 0.50 | WOSCOPS OR (rs10189905, source cohort, model add, endpoint CHD): 0.56 | WOSCOPS OR (rs10305439, source CaseOnly, model dom, endpoint CHD): 0.63 | WOSCOPS OR (rs10429616, source cohort, model rec, endpoint CHD): 1.54 | WOSCOPS OR (rs10497883, Source caseonly): 0.67 | WOSCOPS OR (rs10500736, source cohort, model dom, endpoint CHD): 0.52 | WOSCOPS OR (rs10774580, Source caseonly): 0.56 | WOSCOPS OR (rs10814422, source CaseOnly, model dom, endpoint CHD): 0.46 | WOSCOPS OR (rs10935907, source CaseOnly, model dom, endpoint CHD): 1.49 | WOSCOPS OR (rs10945874, Source caseonly): 1.24 | WOSCOPS OR (rs10973013, source CaseOnly, model dom, endpoint CHD): 0.48 | WOSCOPS OR (rs11138314, Source cohort): 0.59 | WOSCOPS OR (rs11148285, Source caseonly): 2.30 | WOSCOPS OR (rs11585647, Source caseonly): 0.67 | WOSCOPS OR (rs11721179, Source caseonly): 0.60 | WOSCOPS OR (rs12556591, source CaseOnly, model add, endpoint CHD): 0.66 | WOSCOPS OR (rs13126170, Source caseonly): 0.78 | WOSCOPS OR (rs13129010, Source caseonly): 1.90 | WOSCOPS OR (rs13137776, source CaseOnly, model add, endpoint CHD): 0.62 | WOSCOPS OR (rs13279522, source cohort, model add, endpoint CHD): 0.63 | WOSCOPS OR (rs13318232, source CaseOnly, model dom, endpoint CHD): 0.40 | WOSCOPS OR (rs13431868, source CaseOnly, model dom, endpoint CHD): 1.42 | WOSCOPS OR (rs16885715, Source caseonly): 1.58 | WOSCOPS OR (rs17002013, Source caseonly): 1.66 | WOSCOPS OR (rs17076974, source cohort, model add, endpoint CHD): 1.32 | WOSCOPS OR (rs17138705, source CaseOnly, model add, endpoint CHD): 0.70 | WOSCOPS OR (rs17688430, Source caseonly): 0.71 | WOSCOPS OR (rs17706237, source CaseOnly, model dom, endpoint CHD): 1.52
